Earlier results, collected in PMC4875935 (Clinical Pharmacokinetics, 2015).
“And” between values parts separate entries of the source, which are not always exact repeats. Equal entries are not always repeated.

Columns and labels:
[1] = not given; remark: listed apart in the source
[2] = test system: C. albicans
[3] = test system: Candida albicans; details: neutropenic mouse model of disseminated Candida albicans
[4] = test system: invasive candidiasis

SMILES: CC[C@H](C)C[C@H](C)CCCCCCCCC(=O)N[C@H]1C[C@@H](O)[C@@H](NCCN)NC(=O)[C@@H]2[C@@H](O)CCN2C(=O)[C@H]([C@H](O)CCN)NC(=O)[C@H]([C@H](O)[C@@H](O)c2ccc(O)cc2)NC(=O)[C@@H]2C[C@@H](O)CN2C(=O)[C@H]([C@@H](C)O)NC1=O [caspofungin]
- CL (earlier studies amongst other patient groups): 0.40 L/h and 0.46 L/h
- AUC24 typically observed (typically observed for caspofungin): 100000 ng·h/mL
- protein bound [1]: 92–97%
- epidemiological cut-off value [2]: 0.12 µg/mL
- mode MIC [2]: 0.03 µg/mL
- AUC/MIC ratio associated with a 1-log kill/24 h [3]: 865
- tolerability ([4]; 150 mg daily, patients with invasive candidiasis): well-tolerated
- clinical and mycological cure at the end of therapy ([4]; reported response rates in the literature): 72–73%
